Test results taken from US20080318970A1, “Treatment of Infectious Diseases” (priority 2004, published 2008).
Where two headings read alike, the source gives them in different places.

Key:
Format in all cases: cell-based
[1] = system: E. coli, LN 3164; experiment: MIC susceptibility test, microdilution broth method (NCCLS), chemosensitising compound alone; settings: 16 h
Experimental: Bacteria were sub-cultured on Mueller-Hinton agar plates and incubated over night at 37° C. Pre-warmed Mueller-Hinton broth was inoculated with colonies from the plate and incubated for approximately three hours to achieve a log phase culture. The log phase culture of bacteria was diluted with fresh pre-warmed medium and adjusted to a defined Optical Density (OD) at 600 nm in order to give a final assay concentration of 1×10^4 bacteria/ml medium.
Cell growth was tested using the MIC susceptibility tests by use of the microdilution broth method in accordance to the NCCLS Guidelines (NCCLS Guidelines, Methods for Dilution Antimicrobial Susceptibility Tests for Bacteria That Grow Aerobically; Approved Standard, Sixth Edition, Volume 23; Number 2). A 100% Mueller-Hinton broth and a bacterial concentration of 1×10^4/ml were used.
A log phase culture of bacteria was diluted with fresh pre-warmed medium and adjusted to a defined OD at 600 nm in order to give a final concentration of 1×10^4 bacteria/ml medium in each well. Each chemosensitising compound was added to the bacterial culture in the wells in two-fold dilutions in order to give final concentrations ranging from 8 to 500 μg/ml. Trays were incubated at 37° C. for 16 h. Minimal Inhibitory Concentration, (MIC) is defined as the lowest inhibitory concentration showing no visible growth according to the NCCLS Guidelines.

[2] = system: E. coli, LN 3164; experiment: Effect of chemosensitising compounds on DR (DR ratio) with ciprofloxacin, microtiter assay; settings: E. coli LN 3164; for DR ratio: MIC ciprofloxacin alone / MIC ciprofloxacin + chemosensitising compound at ¼ of its MIC
Experimental: The effects of the chemosensitising compounds on DR were studied by the microtiter assay described above by exposing cells to 0-64 μg/ml anti-infective drug in the absence or presence of chemosensitising compound. Each experiment was repeated in tripleduplicate. MIC values represent the mean values of two separate experiments.
A log phase culture of bacteria was diluted with fresh pre-warmed medium and adjusted to a defined OD at 600 nm in order to give a final concentration of 1×10^4 bacteria/ml medium in each well. […] Anti-infective agent was added to the bacterial culture in the wells in two-fold dilutions in order to give final concentrations ranging from 0 to 64 μg/ml. Trays were incubated at 37° C. for 16 h. The DR ratio was defined as the ratio between the MIC value for anti-infective agent alone divided by the MIC for the anti-infective agent in the presence of the chemosensitising compound. This ratio represents the increase in apparent potency of the anti-infective agent caused by the chemosensitising compound, and may be expressed as
DR ratio=(MICanti-infective agent)/(MICanti-infective agent+chemosensitising compound)

[3] = system: Fluconazole Resistant Candida albicans; experiment: Checkerboard combination study on fungals, broth microdilution (NCCLS M27-A); settings: Candida albicans
Experimental: The synergistic effect of Trans-clopenthixol was studied by checkerboard combination studies exposing cells to 0-256 μg/ml anti-infective agent in the absence or presence of trans-clopenthixol (0 to 8 μg/ml in two-fold dilutions). Each experiment was repeated in tripleduplicate. MIC values represent the mean values of two separate experiments.
Clinical Isolate of a Fluconazole Resistant Candida albicans from a Patient with candidemia.
The isolates were subcultured for 24 h on Sabouraud glucose agar before susceptibility testing.
Broth microdilution tests were performed according to NCCLS document M27-A (Ref: National Committee for Clinical Laboratory Standards. (1997). Reference Method for Broth Dilution Antifungal Susceptibility Testing of Yeasts: Approved Standard M27-A. NCCLS, Wayne, Pa.)
Microtitre plates were read spectrophotometrically at 530 nm, after mixing the wells by pipetting to resuspend yeast sediments.
The Fractional Inhibitory Concentration (FIC) was calculated for the anti-infective agent alone and in combination with trans-clopenthixol. The following formulae were used to calculate the FIC index:
FIC=FICchemosensitising compound+FICanti-infective agent
FICchemosensitising compound=(MICchemosensitising compound+anti-infective agent)/(MICchemosensitising compound)
FICanti-infective agent=(MICanti-infective agent+chemosensitising compound/(MICanti-infective agent)
Synergy was defined as a FIC index of <0.5.

Compound `CN(C)CCCN1c2ccccc2Sc2cccc(Cl)c21` [1-chlorpromazine] has an MIC ([1]; 37° C.) of 64 µg/mL and a DR ratio [2] of 2.
Work on `CN(C)CCN1c2ccccc2Sc2ccc(Cl)cc21` [2-chloro-10-(2-dimethylaminoethyl)phenothiazine] yielded an MIC ([1]; Escherichia coli, LN3164, 37° C., read-out: MIC) of 64 µg/mL and a DR ratio [2] of 2.
Work on `CN(C)CCCN1c2cc(Cl)ccc2Sc2cc(O)c(O)cc21` [7,8-dihydroxy-chlorpromazine, 7,8-dihydroxychlorpromazine] yielded an MIC ([1]; 37° C.) of 125 µg/mL and a DR ratio [2] of 0.5.
Work on `CN(C)CCCN1c2ccc(O)cc2Sc2ccc(Cl)cc21` [7-hydroxy-chlorpromazine, 7-hydroxychlorpromazine] yielded an MIC ([1]; 37° C.) of 125 µg/mL and a DR ratio [2] of 1.
`CNCCCN1c2ccccc2Sc2ccc(Cl)cc21` [Desmethyl-chlorpromazine, desmethylchlorpromazine] showed an MIC ([1]; 37° C.) of 32 µg/mL and a DR ratio [2] of 2.
`OC(Cn1cncn1)(Cn1cncn1)c1ccc(F)cc1F` [Fluconazole, reference compound] showed an MIC [3] of 128 µg/mL.
`OCCN1CCN(CCCN2c3ccccc3Sc3ccc(C(F)(F)F)cc32)CC1` [Fluphenazine, fluphenazine] gave an MIC ([1]; 37° C.) of 32 µg/mL and a DR ratio [2] of 8.
For `OCCN1CCN(CCCN2c3ccccc3Sc3ccc(Cl)cc32)CC1` [Perphenazine, perphenazine], the MIC ([1]; 37° C.) was 125 µg/mL and the DR ratio [2] was 4.
`CN1CCN(CCCN2c3ccccc3Sc3ccc(Cl)cc32)CC1` [Prochlorperazine, prochlorperazine] was tested, and the MIC ([1]; 37° C.) was 64 µg/mL and the DR ratio [2] was 4.
In the case of `CN(C)CCCN1c2ccccc2Sc2ccccc21` [Promazine, promazine], the MIC ([1]; 37° C.) is reported as 64 µg/mL, the “sensitised drug resistant cells to ciprofloxacin by” value ([2]; ciprofloxacin) is reported as 100% and the DR ratio [2] is reported as 2.
